Source: patent US9695127B2, “Compounds for treating HIV and methods for using the compounds” (University of Pittsburgh—Of the Commonwealth System of …, priority 2012, dated 2017)

Experiments:
HIV-1 NL4-3 = assay: HIV-1 infectivity in TZM-b1 reporter cells (luciferase); type: cell-based; conditions: for inhibition at 3 µM: Human immunodeficiency virus 1, NL43, TZM-b1, 48 h, read-out: INFECTIVITY @ 3 μM % Inhibition vs. DMSO control; for INFECTIVITY @ 3 μM % Inhibition vs. DMSO control: TZM-b1 reporter cells
Protocol: Compounds (1 μM) shown in FIG. 7 were added to cultures of U87MG and CEM-T4 cells in 96-well plates, followed by infection with wild-type HIV-1 NL4-3 (50 pg p24 equivalents/ml) 1 hour later. […] Virus replication was assessed by p24 ELISA after 4 days (U87MG) or 9 days (CEM-T4). Data are expressed as the mean percent inhibition as compared to control cultures incubated with the carrier solvent (DMSO)±S.E.M. (n=4). […] FIG. 9 concerns infectivity assays. Compounds (3 μM) were added to cultures of the reporter cell line TZM-b1 followed by infection with either wild-type or Nef-defective (ΔNef) HIV NL4-3 in 96-well plates. After 48 hours, relative virus infectivity was assessed as luciferase production in infected cells. […]
HIV assays: Viral stocks were prepared by transfection of 293T cells (ATCC) with wild-type and Nef-defective (ΔNef) proviral genomes (NL4—3 strain) and amplified in the T-cell line, MT2 (NIH AIDS Research and Reference Reagent Program). Viral replication was assessed in the U87MG astroglioma cell line engineered to express the HIV-1 co-receptors CD4 and CXCR4 or in the T-lymphoblast cell line, CEM-T4. […] Compounds were solubilized in DMSO, and added to the cell culture medium 1 h prior to infection with HIV. Viral replication was monitored for either 4 days (U87MG) or 9 days (CEM-T4) by measuring p24 Gag protein levels in the culture supernatant using standard ELISA-based techniques. HIV-1 infectivity was measured using the reporter cell line, TZM-b1 (NM AIDS Research and Reference Reagent Program). Cells were grown in 96-well plates (2.5×10^4) 8 h prior to virus infection to permit adherence. Compounds were pre-incubated with wild-type HIV-1 for 4 h prior to addition to the cells in a final volume of 200 μl. After 48 h at 37° C., the cells were washed with PBS and lysed in luciferase lysis buffer (Promega) by rocking for 15 min Lysates (40 μl) were transferred to white 96-well plates and 50 μl luciferase reagent (Promega) was injected into each well. Readings were recorded with a delay time of 2 sec and an integration period of 10 sec.

wild-type HIV-1 NL4-3 = assay: HIV-1 replication in U87MG cells (p24 ELISA); type: cell-based; conditions: for inhibition at 3 µM: Human immunodeficiency virus 1, NL43, U-87 MG, 96 h, read-out: REPLICATION @ 3 μM % Inhibition vs. DMSO control; for REPLICATION @ 3 μM % Inhibition vs. DMSO control: U87MG cells
Text: In particular disclosed embodiments, the compound may be used to block Nef-dependent HIV replication and infectivity. FIG. 7 illustrates the chemical structures of the compounds identified by the Nef:Hck HTS campaign and subsequently shown to block Nef-dependent enhancement of HIV-1 replication in two different cell lines are shown, along with the IC50 values for each compound against Hck alone vs. the Nef:Hck complex. FIG. 8 illustrates results concerning HIV replication. […] Viral output for the DMSO-treated control cultures was consistently greater than 100-fold over the HIV input, typically ranging from 9,000-12,000 p24 equivalents/ml. Virus replication was assessed by p24 ELISA after 4 days (U87MG) or 9 days (CEM-T4). Data are expressed as the mean percent inhibition as compared to control cultures incubated with the carrier solvent (DMSO)±S.E.M. (n=4). Results of replication and cytotoxicity experiments with all certain hit compounds from the primary screen are shown in FIG. 3 and FIG. 4. FIG. 9 concerns infectivity assays. Compounds (3 μM) were added to cultures of the reporter cell line TZM-b1 followed by infection with either wild-type or Nef-defective (ΔNef) HIV NL4-3 in 96-well plates. After 48 hours, relative virus infectivity was assessed as luciferase production in infected cells. Results are plotted as the mean percent of HIV-1 infectivity observed in control cells incubated with the carrier solvent DMSO±S.E.M. (n=3). In the absence of Nef, infectivity is reduced by about 50% (ΔNef; dashed line shown for reference).
HIV assays: Viral stocks were prepared by transfection of 293T cells (ATCC) with wild-type and Nef-defective (ΔNef) proviral genomes (NL4—3 strain) and amplified in the T-cell line, MT2 (NIH AIDS Research and Reference Reagent Program). Viral replication was assessed in the U87MG astroglioma cell line engineered to express the HIV-1 co-receptors CD4 and CXCR4 or in the T-lymphoblast cell line, CEM-T4. Both the U87 MG and CEM-T4 cell lines support HIV-1 replication in a Nef-dependent manner, and were obtained from the NM AIDS Research and Reference Reagent Program. Compounds were solubilized in DMSO, and added to the cell culture medium 1 h prior to infection with HIV. Viral replication was monitored for either 4 days (U87MG) or 9 days (CEM-T4) by measuring p24 Gag protein levels in the culture supernatant using standard ELISA-based techniques. HIV-1 infectivity was measured using the reporter cell line, TZM-b1 (NM AIDS Research and Reference Reagent Program). Cells were grown in 96-well plates (2.5×10^4) 8 h prior to virus infection to permit adherence. Compounds were pre-incubated with wild-type HIV-1 for 4 h prior to addition to the cells in a final volume of 200 μl. After 48 h at 37° C., the cells were washed with PBS and lysed in luciferase lysis buffer (Promega) by rocking for 15 min Lysates (40 μl) were transferred to white 96-well plates and 50 μl luciferase reagent (Promega) was injected into each well. Readings were recorded with a delay time of 2 sec and an integration period of 10 sec.

| SMILES | inhibition at 3 µM (HIV-1 NL4-3) [%] | further results |
| --- | --- | --- |
| N=C(N)n1nc(-c2ccc(F)cc2)c(Cc2cccc(Cl)c2)c1O [DD-1-21] | 0 |  |
| Oc1c(Cc2cccc(Cl)c2)c(-c2ccc(F)cc2)nn1C1=NCCN1 [DD-1-22] | 0 |  |
| Cc1c(Cc2cccc(Cl)c2)c(-c2ccccc2)nn1C(=N)N [DD-1-26] | 0 |  |
| COc1ccc(-c2nn(C(=N)N)c(O)c2Cc2cccc(Cl)c2)cc1 [DD-1-27] | 0 |  |
| Nc1c(Cc2cccc(Cl)c2)c(-c2ccc(F)cc2)nn1C1=NCCN1 [DD-1-30] | 0 |  |
| COc1cccc(Cc2c(-c3ccc([N+](=O)[O-])cc3)nn(C(=N)N)c2O)c1 [EAF-1-21] | 0 |  |
| COc1cccc(Cc2c(-c3ccc(F)cc3)nn(C(=N)N)c2O)c1 [EAF-1-22] | 0 |  |
| COc1ccc(-c2n[nH]c(O)c2CCc2cccc(Cl)c2)cc1 [JV-1-59-1] | 0 | inhibition at 3 µM (wild-type HIV-1 NL4-3): 30.1% |
| N=C(N)n1nc(-c2ccc([N+](=O)[O-])cc2)c(CCc2cccc(Cl)c2)c1O [JV-1-62-2-1] | 0 | inhibition at 3 µM (wild-type HIV-1 NL4-3): 53.2% |
| N=C(N)n1nc(-c2ccc([N+](=O)[O-])cc2)cc1O [JV-1-62-2-2] | 0 |  |
| COc1ccc(-c2nn(C(=N)N)c(O)c2CCc2cccc(OC)c2)cc1 [JV-1-67-1] | 0 |  |
| COc1ccc(-c2nn(C3=NCCN3)c(O)c2CCc2cccc(OC)c2)cc1 [JV-1-71-1] | 25.2 |  |
| COc1ccc(-c2nn(C(=N)N)c(O)c2CCc2ccc(F)cc2)cc1 [JV-1-74-1] | 0 | inhibition at 3 µM (wild-type HIV-1 NL4-3): 27.8% |
| COc1ccc(-c2nn(C3=NCCN3)c(O)c2CCc2ccc(F)cc2)cc1 [JV-1-74-2] | 36.7 | inhibition at 3 µM (wild-type HIV-1 NL4-3): 46.8% |
| COc1ccc(-c2n[nH]c(O)c2CCc2ccc(F)cc2)cc1 [JV-1-75-1] | 0 |  |
| COc1ccc(-c2nn(-c3ccccc3)c(O)c2CCc2ccc(F)cc2)cc1 [JV-1-79] |  | INFECTIVITY @ 3 μM % Inhibition vs. DMSO control (HIV-1 NL4-3): Toxic; REPLICATION @ 3 μM % Inhibition vs. DMSO control (wild-type HIV-1 NL4-3): Toxic |
| COc1ccc(-c2nn(-c3ccccn3)c(O)c2CCc2ccc(F)cc2)cc1 [JV-1-80] |  | INFECTIVITY @ 3 μM % Inhibition vs. DMSO control (HIV-1 NL4-3): Toxic; REPLICATION @ 3 μM % Inhibition vs. DMSO control (wild-type HIV-1 NL4-3): Toxic |
| COc1ccc(-c2nn(-c3ccccc3)c(OC)c2CCc2ccc(F)cc2)cc1 [JV-1-81] | 19.7 |  |
| Cc1nn(C(=N)N)c(O)c1CCc1ccc(F)cc1 [JV-1-87] |  | INFECTIVITY @ 3 μM % Inhibition vs. DMSO control (HIV-1 NL4-3): 0.0% |
| N=C(N)n1nc(C2CC2)c(CCc2ccc(F)cc2)c1O [JV-1-89] |  | INFECTIVITY @ 3 μM % Inhibition vs. DMSO control (HIV-1 NL4-3): 28.0%; REPLICATION @ 3 μM % Inhibition vs. DMSO control (wild-type HIV-1 NL4-3): 56.1% |
| COc1ccc(-c2nn(C(N)=S)c(O)c2CCc2ccc(F)cc2)cc1 [JV-1-94] |  | INFECTIVITY @ 3 μM % Inhibition vs. DMSO control (HIV-1 NL4-3): 0.0% |
| N=C(N)n1nc(-c2ccoc2)c(CCc2ccc(F)cc2)c1O [JV-1-96] |  | INFECTIVITY @ 3 μM % Inhibition vs. DMSO control (HIV-1 NL4-3): 11.0%; REPLICATION @ 3 μM % Inhibition vs. DMSO control (wild-type HIV-1 NL4-3): Toxic |
| N=C(N)n1nc(-c2ccc(C(F)(F)F)cc2)c(Cc2cccc(Cl)c2)c1O [JV-2-9-1] | 0 |  |
| N=C(N)n1nc(-c2ccc([N+](=O)[O-])cc2)c(Cc2cccc(Cl)c2)c1O [JV-2-10] | 3 |  |
| NC(=S)n1nc(-c2ccc(C(F)(F)F)cc2)c(Cc2cccc(Cl)c2)c1O [JV-2-12] | 41.7 |  |
| O=[N+]([O-])c1ccc(-c2n[nH]c(O)c2Cc2ccc(F)cc2)cc1 [JV-2-13] | 1.7 |  |

| SMILES | inhibition at 3 µM (HIV-1 NL4-3) [%] | further results |
| --- | --- | --- |
| Oc1c(Cc2cccc(Cl)c2)c(-c2ccc(C(F)(F)F)cc2)nn1C1=NCCN1 [JV-2-14] | 54.7 |  |
| N=C(N)n1nc(-c2ccccc2)c(Cc2cccc(Cl)c2)c1N [JV-2-16] | 0 |  |
| N=C(N)n1nc(-c2ccc(F)cc2)c(Cc2cccc(Cl)c2)c1N [JV-2-19] | 0 |  |
| COc1ccccc1/N=N/c1c(-c2ccc([N+](=O)[O-])cc2)nn(C(N)=S)c1O [JZ-1-49] | 0 |  |
| COc1ccc(/N=N/c2c(-c3ccc([N+](=O)[O-])cc3)n[nH]c2O)cc1 [JZ-1-50] | 28.9 |  |
| COc1cccc(/N=N/c2c(-c3ccc([N+](=O)[O-])cc3)nn(C(N)=S)c2O)c1 [JZ-1-56] | 0 |  |
| Oc1[nH]nc(-c2ccccc2)c1/N=N/c1ccccc1 [JZ-1-58-2] | 1.7 |  |
| NC(=S)n1nc(-c2ccccc2)c(/N=N/c2ccccc2)c1O [JZ-1-58-3] | 7.3 |  |
| COc1ccc(-c2nn(C(N)=S)c(O)c2/N=N/c2cccc(Cl)c2)cc1 [JZ-1-62] | 9.3 |  |
| NC(=S)n1nc(-c2ccc(C(F)(F)F)cc2)c(/N=N/c2cccc(Cl)c2)c1O [JZ-1-64] | 26.5 |  |
| NC(=S)n1nc(-c2ccc([N+](=O)[O-])cc2)cc1O [JZ-1-94] | 0 |  |
| O=[N+]([O-])c1ccc(-c2n[nH]c(O)c2Cc2cccc(Cl)c2)cc1 [JZ-1-97-2-2] | 12.7 | inhibition at 3 µM (wild-type HIV-1 NL4-3): 0% |
| NC(=O)n1nc(-c2ccc(F)cc2)c(/N=N/c2cccnc2)c1O [JZ-1-101] | 0 | inhibition at 3 µM (wild-type HIV-1 NL4-3): 0% |
| NC(=O)n1nc(-c2ccc(F)cc2)c(/N=N/c2cncc(Cl)c2)c1O [JZ-1-106] | 3.5 | inhibition at 3 µM (wild-type HIV-1 NL4-3): 0% |
| COc1ccc(-c2nn(-c3ccccc3)c(OC)c2/C=C/c2ccccc2)cc1 [JZ-1-145-1] | 0 |  |
| COc1ccc(-c2nn(-c3ccccc3)c(OC)c2/C=C/c2cccc(F)c2)cc1 [JZ-1-146-1] | 0 |  |
| COc1ccc(-c2nn(C(=N)N3CCOCC3)c(O)c2CCc2ccc(F)cc2)cc1 [JZ-1-154-2-2] | 0 |  |
| O=[N+]([O-])c1ccc(-c2nn(C3=NCCN3)c(O)c2Cc2ccc(F)cc2)cc1 [JZ-1-171] | 0 |  |
| N=C(N)n1nc(-c2ccc(F)cc2)c(Cc2ccc(F)cc2)c1O [JZ-1-175] | 0 |  |
| Oc1c(Cc2ccc(F)cc2)c(-c2ccc(F)cc2)nn1C1=NCCN1 [JZ-1-176] | 7.7 |  |
| N=C(N)n1nc(-c2ccc(C(F)(F)F)cc2)c(Cc2ccc(F)cc2)c1O [JZ-1-177] | 0 |  |
| Oc1[nH]nc(-c2ccc(C(F)(F)F)cc2)c1Cc1ccc(F)cc1 [JZ-1-179-2] | 0 |  |
| N=C(N1CCOCC1)n1nc(-c2ccc(C(F)(F)F)cc2)c(Cc2ccc(F)cc2)c1O [JZ-1-180] | 0 |  |
| NC(=S)n1nc(-c2ccc([N+](=O)[O-])cc2)c(/N=N/c2ccccc2Cl)c1O [KM-1-48] | 19.3 |  |
| C(=C\c1c[nH]nc1-c1ccccc1)/c1ccccc1 [Vit-3f] | 0 |  |
